In the CheMixHub viscosity set:
± gives the uncertainty stated by the source.

Test: xn = mol fraction of the nth substance listed

OCCCl + CCO
viscosity [mPa·s], 101.33 kPa
Conditions | x1 = 0.0955 | x1 = 0.2589 | x1 = 0.2902 | x1 = 0.3931 | x1 = 0.4925 | x1 = 0.5932 | x1 = 0.6938 | x1 = 0.7947 | x1 = 0.8984
298.15 K | 1.086 ± 0.027 | 1.262 ± 0.03 | 1.302 ± 0.031 | 1.45 ± 0.034 | 1.61 ± 0.038 | 1.798 ± 0.042 | 2.001 ± 0.046 | 2.222 ± 0.051 | 2.538 ± 0.058
303.15 K | 0.987 ± 0.025 | 1.14 ± 0.028 | 1.174 ± 0.029 | 1.306 ± 0.031 | 1.447 ± 0.034 | 1.601 ± 0.038 | 1.772 ± 0.041 | 1.958 ± 0.045 | 2.197 ± 0.05
308.15 K | 0.897 ± 0.023 | 1.034 ± 0.026 | 1.065 ± 0.026 | 1.179 ± 0.029 | 1.297 ± 0.031 | 1.432 ± 0.034 | 1.579 ± 0.037 | 1.735 ± 0.041 | 1.932 ± 0.045

CCCCCCCCCCC + CCCCCCCC
298.15 K, 101.33 kPa
Conditions | viscosity [mPa·s]
x2 = 0.1011 | 1.012 ± 0.013
x2 = 0.2077 | 0.9375 ± 0.012
x2 = 0.3112 | 0.8621 ± 0.011
x2 = 0.406 | 0.8112 ± 0.01
x2 = 0.5073 | 0.7521 ± 0.0099
x2 = 0.6089 | 0.7019 ± 0.0093
x2 = 0.7063 | 0.645 ± 0.0087
x2 = 0.8047 | 0.6014 ± 0.0082
x2 = 0.9039 | 0.5503 ± 0.0077

NC=O + CCCCCO
298.15 K, 100 kPa
Conditions | viscosity [mPa·s]
x1 = 0.05608 | 3.38 ± 0.08
x1 = 0.1142 | 3.39 ± 0.08
x1 = 0.2182 | 3.48 ± 0.08
x1 = 0.2483 | 3.57 ± 0.08
x1 = 0.3487 | 3.73 ± 0.08
x1 = 0.3776 | 3.77 ± 0.08
x1 = 0.4665 | 3.98 ± 0.09
x1 = 0.4951 | 4.02 ± 0.09
x1 = 0.5681 | 4.15 ± 0.09
x1 = 0.6207 | 4.23 ± 0.09
x1 = 0.7099 | 4.32 ± 0.1
x1 = 0.7533 | 4.33 ± 0.1
x1 = 0.8001 | 4.23 ± 0.09
x1 = 0.8518 | 4.07 ± 0.09
x1 = 0.9349 | 3.69 ± 0.08

NC=O + c1ccncc1
298.15 K, 101 kPa
Conditions | viscosity [mPa·s]
x1 = 0.129 | 1.064 ± 0.21
x1 = 0.1798 | 1.16 ± 0.23
x1 = 0.2662 | 1.365 ± 0.27

[I-].[Rb+] + O
310.15 K, 101 kPa
Conditions | viscosity [mPa·s]
x1 = 0.000182 | 0.6811 ± 0.006
x1 = 0.000907 | 0.69 ± 0.0061
x1 = 0.001816 | 0.7025 ± 0.0063
x1 = 0.002695 | 0.7138 ± 0.0064
x1 = 0.003679 | 0.7268 ± 0.0066
x1 = 0.005197 | 0.7469 ± 0.0068
x1 = 0.005988 | 0.7573 ± 0.007

NC=O + OCCCO
viscosity [mPa·s], 100 kPa
Conditions | x1 = 0.1034 | x1 = 0.2038 | x1 = 0.3016 | x1 = 0.4021 | x1 = 0.5014 | x1 = 0.5969 | x1 = 0.7026 | x1 = 0.7996 | x1 = 0.8975
293.15 K | 38.53 ± 7.7 | 28.29 ± 5.7 | 19.85 ± 4 | 14.09 ± 2.8 | 10.47 ± 2.1 | 8.232 ± 1.6 | 6.233 ± 1.2 | 5.198 ± 1 | 4.415 ± 0.88
298.15 K | 29.44 ± 5.9 | 21.08 ± 4.2 | 14.33 ± 2.9 | 9.719 ± 1.9 | 7.266 ± 1.5 | 6.123 ± 1.2 | 5.094 ± 1 | 4.135 ± 0.83 | 3.811 ± 0.76
303.15 K | 23.41 ± 4.7 | 16.76 ± 3.4 | 11.34 ± 2.3 | 7.417 ± 1.5 | 5.776 ± 1.2 | 4.679 ± 0.94 | 4.163 ± 0.83 | 3.336 ± 0.67 | 3.213 ± 0.64

CCOC(=O)CCC(=O)OCC + CCCCO
100 kPa
Conditions | viscosity [mPa·s]
303.15 K, x1 = 0.1 | 1.845 ± 0.016
308.15 K, x1 = 0.6998 | 1.635 ± 0.016
313.15 K, x1 = 0.3 | 1.355 ± 0.013
318.15 K, x1 = 0.2001 | 1.245 ± 0.012
323.15 K, x1 = 0.8997 | 1.435 ± 0.014

CN1CCC[C@H]1c1cccnc1 + OCCCO
100 kPa
Conditions | viscosity [mPa·s]
293.15 K, x1 = 0.5 | 33.15 ± 0.72
293.15 K, x1 = 0.6004 | 22.75 ± 0.49
293.15 K, x1 = 0.8 | 9.805 ± 0.21
298.15 K, x1 = 0.8 | 8.105 ± 0.17
303.15 K, x1 = 0.6004 | 13.95 ± 0.3
308.15 K, x1 = 0.7 | 7.885 ± 0.17
313.15 K, x1 = 0.9 | 3.625 ± 0.076
323.15 K, x1 = 0.3 | 13.05 ± 0.29

CCOC(=O)CCC(=O)OCC + CCCO
100 kPa
Conditions | viscosity [mPa·s]
293.15 K, x1 = 0.3998 | 1.875 ± 0.017
313.15 K, x1 = 0.4999 | 1.325 ± 0.013
318.15 K, x1 = 0.8997 | 1.545 ± 0.015
323.15 K, x1 = 0.3998 | 1.065 ± 0.011
